The text below walks through data of patent US6911443B2 (Bayer Aktiengesellschaft, priority 2000, dated 2005).

In one experiment the target is T1, human Syk (GST-Syk) (Homo sapiens, UniProt P43405).
T1 construct: A cDNA fragment encoding human Syk openreading frame was cloned; made in house; host or cells: Sf21 insect cells (baculovirus, transfer vector pAcG2T)
The experiment in a line: Syk tyrosine kinase inhibitory assay. The class given is biochemical. Particulars: Table 11; read-out: Activity grade. The source says: [Syk Tyrosine Kinase Inhibitory Assay]
(1) Preparation of Syk Protein
A cDNA fragment encoding human Syk openreading frame was cloned from total RNA of human Burkitt's lymphoma B cell lines, Raji (American Type Culture Collection), with the use of RT-PCR method. The cDNA fragment was inserted into pAcG2T (Pharmingen, San Diego, Calif.) to construct a baculovirus transfer vector. Then the vector, together with the linearized baculovirus (BaculoGold™, Pharmingen), was used to transfect Sf21 cells (Invitrogen, San Diego, Calif.).
Generated recombinant baculovirus was cloned and amplified in Sf21 cells. Sf21 cells were infected with this amplified high titer virus to produce a chimeric protein of Syk kinase fused by glutathione-S-transferase (GST).
The resulting GST-Syk was purified with the use of glutathione column (Amersham Pharmacia Biotech AB, Uppsala, Sweden) according to the manufacturer's instruction.
(2) Synthesize of a Peptide
Next, a peptide fragment of 30 residues including two tyrosine residues, […], was synthesized by a peptide synthesizer. The N-terminal of the fragment was then biotinylated to obtain biotinylated activation loop peptide (AL).
(3) The Measurement of Syk Tyrosine Kinase Activity
All reagents were diluted with the Syk kinase assay buffer (50 mM Tris-HCl (pH 8.0), 10 mM MgCl2, 0.1 mM Na3VO4, 0.1% BSA, 1 mM DTT). First, a mixture (35 μl) including […] of GST-Syk and 0.5 μg of AL was put in each well in 96-well plates. Then 5 μl of a test compound in the presence of 2.5% dimethylsulfoxide (DMSO) was added to each well. To this mixture was added […] (10 μl) to initiate the kinase reaction. The final reaction mixture (50 μl) consists of 0.65 nM GST-Syk, 3 μM AL, 30 μM ATP, a test compound, 0.25% DMSO, and a Syk kinase assay buffer.
The mixture was incubated for 1 hr at room temperature, and the reaction was terminated by the addition of 120 μl of termination buffer (50 mM Tris-HCl (pH 8.0), 10 mMEDTA, 500 mM NaCl, 0.1% BSA). The mixture was transferred to streptavidin-coated plates and incubated for 30 min at room temperature to combine biotin-AL to the plates. After washing the plates with Tris-buffered saline (TBS) (50 mM Tris-HCl (pH 8.0), 138 mM NaCl, 2.7 mM KCl) containing 0.05% Tween-20 for 3 times, 100 μl of antibody solution consisting of 50 mM Tris-HCl (pH 8.0), 138 mM NaCl, 2.7 mM KCl, 1% BSA, 60 ng/ml anti-phosphotyrosine monoclonal antibody, 4G10 (Upstate Biotechnology), which is labeled with europium by Amersham Pharmacia's kit in advance, was added and incubated at room temperature for 60 min. After washing, 100 μl of enhancement solution (Amersham pharmacia Biotech) was added and then time-resolved fluorescence was measured by multi-label counter ARVO (Wallac Oy, Finland) at 340 nm for excitation and 615 nm for emission with 400 msec of delay and 400 msec of window.
Take `COc1ccc(-c2cc3nccn3c(Nc3ccccc3)n2)cc1[N+](=O)[O-]` [Example 12-32]: the IC50 was < 500 nM.

Take `COc1ccc(-c2cc3nccn3c(NC3=NNCS3)n2)cc1OC` [Example 12-31]: the IC50 was in the range of 500 to 2000 nM. As for `COCCN(C)c1ccc(-c2cc3nccn3c(Nc3ccccc3S(C)(=O)=O)n2)cc1OC` [Example 12-44], the IC50 was < 500 nM. With `COc1ccc(-c2cc3nccn3c(Nc3cccnc3)n2)cc1OC` [Example 12-7], the IC50 is < 500 nM. Regarding `COc1ccc(-c2cc3nccn3c(Nc3ccncc3)n2)cc1OC` [Example 12-8], the IC50 was < 500 nM. On to `COc1cc(-c2cc3nccn3c(Nc3ccccc3)n2)ccc1OC(C)=O` [Example 12-33], for which the IC50 was < 500 nM. On to `COc1cc(-c2cc3nccn3c(Nc3ccc(Br)cc3)n2)ccc1N1CCOCC1` [Example 12-53], for which the IC50 was < 500 nM.

For the compound `COc1cc(-c2cc3nccn3c(Nc3ccccc3)n2)ccc1OCCCN1CCSCC1` [Example 12-34], the IC50 was < 500 nM. On to `c1ccc(Nc2nc(-c3ccc4c(c3)OCO4)cc3nccn23)cc1` [Example 12-22], for which the IC50 was 500 to 2000 nM. On the same count and under the same terms, to `COc1cc(-c2cc3nccn3c(Nc3ccccc3)n2)ccc1OCCCN1CCOCC1` [Example 12-16] belongs < 500 nM; to `COc1cc(-c2cc3nccn3c(Nc3ccc(Cl)cn3)n2)ccc1N1CCOCC1` [Example 12-48], < 500 nM.

Staying with this experiment, now noted: Table 13; read-out: Activity grade.
With `CNC(=O)CSc1nc(-c2ccc(OC)c(OC)c2)cc2nccn12` [Example 14-33], the IC50 is < 500 nM. Still for that read-out and setting: to `CCOC(=O)C(C)Sc1nc(-c2ccc(OC)c(OC)c2)cc2nccn12` (stereo not shown) [Example 14-14] belongs 500 to 2000 nM; to `COc1ccc(-c2cc3nccn3c(SCc3cccs3)n2)cc1OC` [Example 14-31], < 500 nM; to `COc1ccc(-c2cc3ncnn3c(Oc3ccc(CCC(=O)O)cc3)n2)cc1OC` [Example 14-12], 500 to 2000 nM.

The same experiment, now with this note: Table 16; read-out: Activity grade.
Turning to `CCSc1nc(-c2ccc(NCCCn3ccnc3)c(OC)c2)cc2nccn12` [Example 17-11], the IC50 is < 500 nM.

Consider `CCSc1nc(-c2ccc(OC)c(NCCN(C)C)c2)cc2nccn12` [Example 17-8], for which the IC50 was in the range of 500 to 2000 nM.

Staying with this experiment, now noted: Table 17; IC50 classes; read-out: Activity grade.
As to `COc1ccc(-c2cc3nccn3c(SCCN)n2)cc1OC` [Example 25], the IC50 is < 500 nM. With `CCSc1nc(-c2ccc(OC)c([N+](=O)[O-])c2)cc2nccn12` [Example 27], the IC50 was < 500 nM.

The same experiment, now with this note: in vitro; compounds as yielded by solid phase synthesis, purity about 40 to 90%.
Consider `COC(=O)[C@@H]1CCCN1c1nc(-c2ccc(OC)c(OC)c2)cc2nccn12` [Example 9-71], for which the “Activity grade (IC50 class)” value is “C-D”. For the compound `CCSc1nc(-c2ccc(S(N)(=O)=O)c(OC)c2)cc2nccn12` [Example 2-7], the “Activity grade (IC50 class)” value is “C-D”.

Still in this experiment, the particulars now being: in vitro; compounds as yielded by solid phase synthesis, purity about 40 to 90%; read-out: Activity grade (IC50 class).
As for `COc1ccc(-c2cc3nccn3c(NCCN3CCCCC3)n2)cc1OC` [Example 9-82], the IC50 lay in the range of 2000 to 10000 nM. `COc1ccc(Nc2nc(-c3ccc(OC)c(OC)c3)cc3nccn23)cc1NCCN(C)CCO` [Example 11-112]: the IC50 was in the range of 500 to 2000 nM.

For the compound `COc1ccc(-c2cc3nccn3c(N(C)CCN(C)C)n2)cc1OC` [Example 9-76], the IC50 fell in the range of 2000 to 10000 nM.

For `COc1ccc(-c2cc3nccn3c(Nc3ccccc3OC(F)(F)F)n2)cc1OC` [Example 11-10], the IC50 lay within 500 to 2000 nM. Consider `CCSc1nc(-c2ccc(OC(C)C)c(OC)c2)cc2nccn12` [Example 3-5], for which the IC50 was < 500 nM. In the case of `CCSc1nc(-c2cccc(OC)c2)cc2nccn12` [Example 8-1], the IC50 is 500 to 2000 nM.

As for `CCCNc1nc(-c2ccc(OC)c(OC)c2)cc2nccn12` [Example 9-87], the IC50 is < 500 nM. Regarding `COc1ccc(-c2cc3nccn3c(Sc3ccccc3OC)n2)cc1OC` [Example 13-2], the IC50 was < 500 nM. Still for that read-out and setting: to `COc1ccc(-c2cc3nccn3c(Nc3ccccc3Cl)n2)cc1OC` [Example 11-55] belongs < 500 nM; to `COc1ccc(-c2cc3nccn3c(Nc3ccc4c(c3)n(C)c(=O)n4C)n2)cc1OC` [Example 11-117], < 500 nM; to `COc1ccc(-c2cc3nccn3c(Nc3ccc(OC(C)C)cc3)n2)cc1OC` [Example 11-98], < 500 nM. Turning to `COc1ccc(-c2cc3nccn3c(SC3C=CCCC3)n2)cc1OC` (stereo not shown) [Example 9-6], the IC50 is < 500 nM. The same measure, in the same setting: to `COc1ccc(Nc2nc(-c3ccc(OC)c(OC)c3)cc3nccn23)cc1F` [Example 11-100] belongs < 500 nM; to `COc1ccc(-c2cc3nccn3c(Nc3cccc(Br)c3)n2)cc1OC` [Example 11-52], < 500 nM; to `COc1ccc(-c2cc3nccn3c(Sc3ncccn3)n2)cc1OC` [Example 13-13], < 500 nM. Turning to `COc1ccc(-c2cc3nccn3c(Sc3nc[nH]n3)n2)cc1OC` [Example 13-29], the IC50 is < 500 nM. For the compound `COc1ccc(-c2cc3nccn3c(Nc3ccc4[nH]c(=O)[nH]c4c3)n2)cc1OC` [Example 11-89], the IC50 is < 500 nM. Same read-out and setting: to `COc1ccc(-c2cc3nccn3c(Nc3ccc([N+](=O)[O-])cc3)n2)cc1OC` [Example 11-33] belongs < 500 nM. Still for that read-out and setting: the figure for `COc1ccc(Nc2nc(-c3ccc(OC)c(OC)c3)cc3nccn23)cc1NC(=O)CN1CCOCC1` [Example 11-83] is 500 to 2000 nM; for `CCNc1nc(-c2ccc(OC)c(OC)c2)cc2nccn12` [Example 9-11] it is < 500 nM. Consider `COc1ccc(-c2cc3nccn3c(Nc3ccc(C)cc3)n2)cc1OC` [Example 11-9], for which the IC50 is < 500 nM. Still for that read-out and setting: the figure for `COc1ccc(-c2cc3nccn3c(N(C)CCC(O)c3ccccc3)n2)cc1OC` (stereo not shown) [Example 9-53] is < 500 nM; for `COc1ccc(Nc2nc(-c3ccc(OC)c(OC)c3)cc3nccn23)cc1OC` [Example 11-84] it is < 500 nM. On the same count and under the same terms, to `COc1ccc(-c2cc3nccn3c(N3CCSCC3)n2)cc1OC` [Example 9-75] belongs 500 to 2000 nM; to `COc1ccc(-c2cc3nccn3c(NCC(O)CO)n2)cc1OC` (stereo not shown) [Example 9-4], 500 to 2000 nM. `COc1ccc(-c2cc3nccn3c(N3CCCCC3)n2)cc1OC` [Example 9-54]: the IC50 was 500 to 2000 nM. In the case of `CCOC(=O)CN(C)c1nc(-c2ccc(OC)c(OC)c2)cc2nccn12` [Example 9-77], the IC50 fell in the range of 2000 to 10000 nM.

Regarding `CCSc1nc(-c2ccc(OC)c(OC)c2)cc2nc(C)cn12` [Example 1-8], the IC50 is < 500 nM. On the same count and under the same terms, to `COc1ccc(Nc2nc(-c3ccc(OC)c(OC)c3)cc3nccn23)c(OC)c1` [Example 11-65] belongs < 500 nM; to `COc1ccc(-c2cc3nccn3c(NCCN(C)C)n2)cc1OC` [Example 9-3], 2000 to 10000 nM; to `COc1ccc(-c2cc3nccn3c(Nc3ccc(Cl)cc3)n2)cc1OC` [Example 11-61], < 500 nM. On to `CCSc1nc(-c2ccc(OCCN3CC(C)OC(C)C3)c(OC)c2)cc2nccn12` (stereo not shown) [Example 5-14], for which the IC50 is < 500 nM. Turning to `CCCCOC(=O)CSc1nc(-c2ccc(OC)c(OC)c2)cc2nccn12` [Example 9-92], the IC50 lay in the range of 500 to 2000 nM. Consider `COc1ccc(-c2cc3nccn3c(Nc3cccc(CO)c3)n2)cc1OC` [Example 11-37], for which the IC50 is < 500 nM. For the compound `COc1ccc(-c2cc3nccn3c(Nc3ccccc3O)n2)cc1OC` [Example 11-31], the IC50 is < 500 nM. On the same count and under the same terms, to `COc1ccc(-c2cc3nccn3c(N3CCN(C(C)=O)CC3)n2)cc1OC` [Example 9-49] belongs 500 to 2000 nM; to `Cc1c(N)cccc1Oc1nc(-c2ccc(O)c(O)c2)cc2ncnn12` [Example 14], < 500 nM.
